Here are results for 4 compounds from ChEMBL document CHEMBL1201862, “PubChem BioAssay data set” (2004).

Structures are written as SMILES.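 48-hour exposure; five concentrations; linearly interpolated endpoints. GI50 = concentration required for 50% inhibition of growth.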 Activity calls are given as the source filed them. No stated cut-off is given here; in the data, active = GI50 up to about 1.1 µM and inactive = higher.

Some test systems named below: SK-MEL-5; BT-549; MCF7; UO-31; Malme-3M; NCI-H226; 786-0; MDA-MB-231; A549; SK-MEL-2; NCI-H23; SN12C; NCI/ADR-RES; K562; OVCAR-4; HL-60; CCRF-CEM; OVCAR-3; A498; RXF 393.
What all share (assay): growth of human tumour cells (NCI), 48 h

For `CCOC(=O)/C(=C\c1ccc(N(C)C)cc1)S(=O)(=O)C(F)(F)C(F)(F)C(F)(F)C(F)(F)F`, the GI50 is > 100 µM (inactive) in the test with SK-MEL-5; 52.6 µM (inactive) in the test on BT-549; > 100 µM (inactive) in the test with MCF7; 55.1 µM (inactive) with UO-31; > 100 µM (inactive) in the test on Malme-3M; > 100 µM (inactive) with NCI-H226. For the same compound, the GI50 with 786-0, in the test on MDA-MB-231, in the test with A549, in the test on SK-MEL-2, with NCI-H23 and with SN12C was > 100 µM (inactive) in each case. The GI50 in the test on NCI/ADR-RES, in the test on K562, with OVCAR-4, in the test with HL-60, in the test with CCRF-CEM and with OVCAR-3 was > 100 µM (inactive) each time. Further, the GI50 with A498 is > 100 µM (inactive).
As for `COC1=C(OC)C(=O)C(C/C=C/c2c(Cl)nc3sccn23)=C(C)C1=O`, the GI50 is 1.32 µM (inactive) with SK-MEL-5; 15 µM (inactive) with BT-549; 5.19 µM (inactive) in the test with MCF7; 18.7 µM (inactive) in the test on UO-31; 3.75 µM (inactive) with Malme-3M; 21.5 µM (inactive) with 786-0. In addition, the GI50 is 7.67 µM (inactive) in the test with MDA-MB-231; 11.2 µM (inactive) with A549; 16.4 µM (inactive) with SK-MEL-2; 0.518 µM (active) in the test with NCI-H23; 16.6 µM (inactive) with SN12C; 5.58 µM (inactive) in the test with NCI/ADR-RES. The GI50 with RXF 393 is 18.4 µM (inactive); with K562, 19.8 µM (inactive); in the test with OVCAR-4, 0.398 µM (active); in the test with CCRF-CEM, 1.85 µM (inactive); in the test with OVCAR-3, 13.7 µM (inactive); with A498, 22.2 µM (inactive).
As for `CSc1nc(NC(C)C)c2c(n1)Sc1nc3ccccc3n1N=C2`, the GI50 is 0.69 µM (active) in the test on SK-MEL-5; 18.7 µM (inactive) in the test on BT-549; 20.3 µM (inactive) in the test with MCF7; 5.32 µM (inactive) in the test with UO-31; 9.18 µM (inactive) with Malme-3M; 0.57 µM (active) in the test on NCI-H226. Besides, the GI50 with 786-0 is 4.23 µM (inactive); with MDA-MB-231, 11.1 µM (inactive); with A549, 5.33 µM (inactive); with SK-MEL-2, 17.9 µM (inactive); in the test with NCI-H23, 11.7 µM (inactive); with SN12C, 10.7 µM (inactive). Also, the GI50 with NCI/ADR-RES was 6.92 µM (inactive); with K562, 50.9 µM (inactive); in the test on OVCAR-4, 3.85 µM (inactive); with HL-60, > 100 µM (inactive); in the test with CCRF-CEM, 6.58 µM (inactive); with OVCAR-3 it was 10.4 µM (inactive). Moreover, the GI50 in the test on A498 was 3.09 µM (inactive).
For `CCc1nn(S(=O)(=O)c2ccc(C)cc2)c2c1CS(=O)(=O)CC2`, the GI50 in the test with SK-MEL-5, in the test with BT-549, in the test on MCF7, with UO-31, in the test on 786-0 and with MDA-MB-231 was > 100 µM (inactive) throughout. Besides, the GI50 with A549 was > 100 µM (inactive); in the test with SK-MEL-2, > 100 µM (inactive); in the test on NCI-H23 it was > 100 µM (inactive); in the test with SN12C, > 100 µM (inactive); with NCI/ADR-RES, 38.1 µM (inactive); in the test with RXF 393 it was > 100 µM (inactive). The GI50 with K562, in the test on OVCAR-4, in the test on OVCAR-3 and in the test with A498 was > 100 µM (inactive) in each case.
